Experiments:
[1] = tested on: T cells; test: LNP association and GFP mRNA expression in T cells of human PBMCs; assay type: cell-based; conditions: for immune cell delivery potentiating ability in T cells, amino lipid panel: ionizable lipid component of the LNP, FIG. 30; for immune cell delivery potentiating ability in T cells, helper lipid panel: phospholipid component of the LNP, FIG. 32; for delivery and uptake by T cells, only cholesterol as structural lipid: Experiment 2, mean % cells expressing the mRNA relative to positive control (Compound X, β-sitosterol); for immune cell delivery potentiating ability in T cells, sterol panel: structural lipid component of the LNP, FIG. 31
Procedure: (§1) In a second series of experiments, additional compounds, were tested in the LNPs for their ability to enhance delivery to T cells. For these experiments, the association of the LNP with cells and the expression of mRNA-encoding protein within the transfected cells was assessed at the cell-by-cell level. Peripheral blood mononuclear cells (PBMCs) from human donors were used. PBMCs were predominately T cells (40-60%), B cells (3-15%), and monocytes (15-35%), but also contained small numbers of other cell types. LNPs were incubated with serum or PBS for 30 minutes and then added to the PBMCs. The LNP concentration was 0.050 mg/ml, the LNP volume was 0.1 ml.
(§2) LNPs contained 0.1% Rhodamine-DOPE in addition to the other LNP components to facilitate detection. Thus, the ratios set forth in the tables below include 0.1 for the rhodamine label. For example, 50:10:10:27.9:2:0.1 AL:DSPC:chol:sterol:Cmp 428 indicates 50% amino lipid as the ionizable lipid, 10% DSPC as the phospholipid, 10% cholesterol, 27.9% phytosterol, 2% Compound 428 as the PEG lipid and 0.1% for the rhodamine-DOPE label. To prepare a non-labeled LNP, the same ratios are used except that the 0.1% rhodamine label is omitted and an additional 0.1% of structural lipid (cholesterol or cholesterol/phytosterol blend) is used (e.g., 27.9% becomes 28%).
(§3) Cells were sorted by flow cytometry into subsets based on expression of certain markers: CD3 (T cells), CD20 (B cells), and CD3-, CD20-, CD14+(Monocytes).
(§4) mRNA encoding GFP was used as a model agent to effect expression of an intracellular protein.
(§5) When conducting flow cytometry, the Y-axis was signal from the rhodamine tag on the LNP and the X-axis was the GFP signal showing expression of the protein.
(§6) The “associated” population is any rhodamine+ and/or GFP+ cell and the percent of these cells was calculated by dividing by the total number of cells. The “expression” population is any GFP+ cell and the percent of these cells was calculated by dividing by the total number of cells. The percent of associated cells expressing was obtained by dividing the % expressing cells by the % associated cells.

[2] = tested on: T cells; test: Additional LNPs: T cell transfection in vitro, mOX40L mRNA, labeled LNPs; assay type: cell-based, human; conditions: for immune cell delivery potentiating ability in T cells, amino lipid panel: ionizable lipid component, FIG. 43
Procedure: In this Example, additional LNPs comprising various lipid components and at different ratios were made and tested for their ability to transfect T cells in vitro. Transfection was performed as in Example 5 using LNPs encapsulating an mRNA encoding mouse OX40L. LNPs were labeled and the results were determined for the mean % cells with LNPs associated, the mean % cells expressing mOX40L and the % of LNP-associated cells expressing mOX40L, as described hereinbefore.

[3] = tested on: splenic CD3+ T cells; test: Transfection of splenic T cells in vivo in mice; conditions: for capability to transfect splenic CD3+ T cells in vivo: as ionizable lipid, 0.5 mg/kg i.v., 24 hours, FIG. 36; for transfection of CD3+ T cells in vivo, only cholesterol as structural lipid: FIG. 36 lanes 6 and 8, relative to positive control LNP (Compound X, β-sitosterol)
Procedure: In this Example, LNPs were made with various lipid components identified in the in vitro screens described in Example 17 and mice were administered the LNPs encapsulating a murine OX40L-encoding mRNA. The compositions shown below in Table 26 were tested in which the ratios of the components in each composition was 50% ionizable lipid, 10% phospholipid, 38.5% structural lipid and 1.5% PEG lipid.
Mice were treated intravenously with a single injection at a dose concentration of 0.1 mg/ml and at a dose level of 0.5 mg/kg. PBS was used as a negative control.

[4] = tested on: monocytes; test: LNP association and GFP mRNA expression in monocytes of human PBMCs; assay type: cell-based; conditions: for immune cell delivery potentiating ability in monocytes, helper lipid panel: phospholipid component, FIG. 39; for immune cell delivery potentiating ability in monocytes, amino lipid panel: ionizable lipid component, FIG. 37; for immune cell delivery potentiating ability in monocytes, sterol panel: structural lipid component, FIG. 38
Procedure: as §1, with “this Example, LNPs were made with various lipid components and at different ratios and” for “a second series of experiments, additional compounds,”, “tested” for “tested in the LNPs”, “transfect monocytes in vitro.” for “enhance delivery to T cells.”, “(40-60%)” for “(40-60%),”
as §2, §3, §4, §5, §6

## CCCCCCCCC(CC)OC(=O)CCCCCCCN(CCCCCCCC(=O)OC(CCCCCCCC)CCCCCCCC)CCCNc1c(NC)c(=O)c1=O (stereo not drawn) [Compound I-301, Heptadecan-9-yl 8-((3-((2-(methylamino)-3,4-dioxocyclobut-1-en-1-yl)amino)propyl)(8-oxo-8-(undecan-3-yloxy)octyl)amino)octanoate]
[1]
  immune cell delivery potentiating ability in T cells, amino lipid panel: exhibited immune cell delivery potentiating ability in T cells
[2]
  immune cell delivery potentiating ability in T cells, amino lipid panel: exhibited immune cell delivery potentiating ability in T cells
[3]
  capability to transfect splenic CD3+ T cells in vivo: even higher capability to transfect splenic CD3+ T cells in vivo than the positive control LNP containing Compound X

## CCCCCCCCCCCCCC(=O)OCC(COP(=O)(O)OCCN)OC(=O)CCCCCCCCCCCCC (stereo not drawn) [DMPE]
[1]
  immune cell delivery potentiating ability in T cells, helper lipid panel: exhibited immune cell delivery potentiating ability in T cells
[4]
  immune cell delivery potentiating ability in monocytes, helper lipid panel: exhibited immune cell delivery potentiating ability in monocytes

## CCCCCCCCC(CCCCCCCC)OC(=O)CCCCCCCN(CCCCCCCC(=O)OCC(C)CCCCCCC)CCCNc1c(NC)c(=O)c1=O (stereo not drawn) [Compound I-321]
[1]
  delivery and uptake by T cells, only cholesterol as structural lipid: effective at potentiating delivery and uptake by T cells
  immune cell delivery potentiating ability in T cells, amino lipid panel: exhibited immune cell delivery potentiating ability in T cells
[2]
  immune cell delivery potentiating ability in T cells, amino lipid panel: exhibited immune cell delivery potentiating ability in T cells
[3]
  transfection of CD3+ T cells in vivo, only cholesterol as structural lipid: effective at potentiating transfecting CD3+ T cells in vivo
  capability to transfect splenic CD3+ T cells in vivo: even higher capability to transfect splenic CD3+ T cells in vivo than the positive control LNP containing Compound X

## CCCCCCCCCOC(=O)CCCCCCCN(CCCCCCCC(=O)OC(CCCCCCCC)CCCCCCCC)CCCNC(=O)OC [Compound I-181]
[1]
  immune cell delivery potentiating ability in T cells, amino lipid panel: exhibited immune cell delivery potentiating ability in T cells
[2]
  immune cell delivery potentiating ability in T cells, amino lipid panel: exhibited immune cell delivery potentiating ability in T cells
[4]
  immune cell delivery potentiating ability in monocytes, amino lipid panel: exhibited immune cell delivery potentiating ability in monocytes

## CCCCCCCCCOC(=O)CCCCCCCN(CCCCCCCC(=O)OC(CCCCCCCC)CCCCCCCC)CCCNc1c(NC)c(=O)c1=O [Compound I-182, Heptadecan-9-yl 8-((3-((2-(methylamino)-3,4-dioxocyclobut-1-en-1-yl)amino)propyl)(8-(nonyloxy)-8-oxooctyl)amino)octanoate]
[1]
  immune cell delivery potentiating ability in T cells, amino lipid panel: exhibited immune cell delivery potentiating ability in T cells
[2]
  immune cell delivery potentiating ability in T cells, amino lipid panel: exhibited immune cell delivery potentiating ability in T cells
[4]
  immune cell delivery potentiating ability in monocytes, amino lipid panel: exhibited immune cell delivery potentiating ability in monocytes

## CC[C@H](/C=C/[C@@H](C)[C@H]1CC[C@H]2[C@@H]3CC=C4C[C@@H](O)CC[C@]4(C)[C@H]3CC[C@]12C)C(C)C [stigmasterol, reference compound]
[4]
  immune cell delivery potentiating ability in monocytes, sterol panel: exhibited immune cell delivery potentiating ability in monocytes

## CC[C@H](CC[C@@H](C)[C@H]1CC[C@H]2[C@@H]3CC=C4C[C@@H](O)CC[C@]4(C)[C@H]3CC[C@]12C)C(C)C [β-sitosterol, beta-sitosterol, reference compound]
[1]
  immune cell delivery potentiating ability in T cells, sterol panel: exhibited immune cell delivery potentiating ability in T cells
[4]
  immune cell delivery potentiating ability in monocytes, sterol panel: exhibited immune cell delivery potentiating ability in monocytes

## CCCCCCCC/C=C\CCCCCCCC(=O)OC[C@H](COP(=O)([O-])OCC[N+](C)(C)C)OC(=O)CCCCCCC/C=C\CCCCCCCC [DOPC, 1,2-dioleoyl-sn-glycero-3-phosphocholine, reference compound]
[4]
  immune cell delivery potentiating ability in monocytes, helper lipid panel: exhibited immune cell delivery potentiating ability in monocytes

## CC[C@H](CC[C@@H](C)[C@H]1CC[C@H]2[C@@H]3CC[C@H]4C[C@@H](O)CC[C@]4(C)[C@H]3CC[C@]12C)C(C)C [β-sitostanol]
[1]
  immune cell delivery potentiating ability in T cells, sterol panel: exhibited immune cell delivery potentiating ability in T cells
[4]
  immune cell delivery potentiating ability in monocytes, sterol panel: exhibited immune cell delivery potentiating ability in monocytes

## CCCCCCCCCOC(=O)CCCCCCCN(CCCCCCCC(=O)OC(CCCCCCCC)CCCCCCCC)CCCNS(C)(=O)=O [Compound I-109]
[1]
  immune cell delivery potentiating ability in T cells, amino lipid panel: exhibited immune cell delivery potentiating ability in T cells
[4]
  immune cell delivery potentiating ability in monocytes, amino lipid panel: exhibited immune cell delivery potentiating ability in monocytes

## CCCCCCCCCOC(=O)CCCCCCCN(CCCCCCCOC(=O)C(CCCCCCCC)CCCCCCCC)CCCNc1c(NC)c(=O)c1=O [Compound I-326]
[1]
  delivery and uptake by T cells, only cholesterol as structural lipid: effective at potentiating delivery and uptake by T cells
  immune cell delivery potentiating ability in T cells, amino lipid panel: exhibited immune cell delivery potentiating ability in T cells
[2]
  immune cell delivery potentiating ability in T cells, amino lipid panel: exhibited immune cell delivery potentiating ability in T cells
[3]
  transfection of CD3+ T cells in vivo, only cholesterol as structural lipid: effective at potentiating transfecting CD3+ T cells in vivo
  capability to transfect splenic CD3+ T cells in vivo: even higher capability to transfect splenic CD3+ T cells in vivo than the positive control LNP containing Compound X

## CC(C)[C@H](C)CC[C@@H](C)[C@H]1CC[C@H]2[C@@H]3CC=C4C[C@@H](O)CC[C@]4(C)[C@H]3CC[C@]12C [camposterol]
[1]
  immune cell delivery potentiating ability in T cells, sterol panel: exhibited immune cell delivery potentiating ability in T cells
[4]
  immune cell delivery potentiating ability in monocytes, sterol panel: exhibited immune cell delivery potentiating ability in monocytes

## CCCCCCCCCCC(=O)CCCCCCCN(CCCCCCCC(=O)OC(CCCCCCCC)CCCCCCCC)CCCNC(=S)N(C)C [Compound I-111]
[1]
  immune cell delivery potentiating ability in T cells, amino lipid panel: exhibited immune cell delivery potentiating ability in T cells
[4]
  immune cell delivery potentiating ability in monocytes, amino lipid panel: exhibited immune cell delivery potentiating ability in monocytes

## CCCCCCCCCCCCCCCCCC(=O)OCC(COP(=O)([O-])OCC[N+]1(C)CCOCC1)OC(=O)CCCCCCCCCCCCCCCCC (stereo not drawn) [Compound H-409]
[1]
  immune cell delivery potentiating ability in T cells, helper lipid panel: exhibited immune cell delivery potentiating ability in T cells
[2]; phospholipid component, FIG. 45
  immune cell delivery potentiating ability in T cells, helper lipid panel: exhibited immune cell delivery potentiating ability in T cells
[4]
  immune cell delivery potentiating ability in monocytes, helper lipid panel: exhibited immune cell delivery potentiating ability in monocytes

— US20230027864A1, “COMPOSITIONS AND METHODS FOR DELIVERY OF AGENTS TO IMMUNE CELLS” (ModernaTX, Inc., priority 2018, published 2023)
